Laboratory results published in the supplement of paper PMC11208160.

Experiment: recombinant UMI read abundance after kanamycin selection (control-corrected) (log10(CPM+1)); higher = more efficient recombination; extreme values may be limits of the assay; sequences stand for … in AGTGCAGAGAAAATCGGCCAGTTTTCTCTGCCTGCAGTCCGCATGCCGTGGGACCCCTTGGGTTCTAACCTGTTGCCTAGATTTATGCAGCGGACTGCCTTTCTCCCAAAGTGATAAACCGG…AGGTTGGTTTCACT; site = the 11-nt donor
Summary of the method: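 Values, expressed as log10(CPM+1), derive from recombinant UMI counts converted to CPM, averaged across replicates and scaled by control-derived factors. Plating was with IPTG (0.07 mM) plus kanamycin or unselected, two replicates each. The screen pooled donor and donor-binding-loop pairs for the IS621 bridge recombinase in Escherichia coli.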
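Also: IS621 bridge recombinase in Escherichia coli cells against a fixed T5 target plasmid.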

Sequence	recombinant UMI read abundance (log10)
CGATCGACATGGACCGGTTTTCCCGGTAATCCGTATTTGTT (site CGACCGACTAA)	0.509
CGATCGACATGGACCGGTTTTCCCGGTAATCCGTATTTGTT (site CGAGCGACTAA)	0.0076
CGATCGACATGGACCGGTTTTCCCGGTAATCCGTATTTGTT (site CGATAGACTAA)	0.00765
CGATCGACATGGACCGGTTTTCCCGGTAATCCGTATTTGTT (site CGATCAACTAA)	0.0776
CGATCGACATGGACCGGTTTTCCCGGTAATCCGTATTTGTT (site CGATCCACTAA)	0.0134
CGATCGACATGGACCGGTTTTCCCGGTAATCCGTATTTGTT (site CGATCGACTAA)	0.6
CGATCGACATGGACCGGTTTTCCCGGTAATCCGTATTTGTT (site CGATCGACTAC)	0.0194
CGATCGACATGGACCGGTTTTCCCGGTAATCCGTATTTGTT (site CGATCGACTAG)	1.09
CGATCGACATGGACCGGTTTTCCCGGTAATCCGTATTTGTT (site CGATCGACTAT)	0.188
CGATCGACATGGACCGGTTTTCCCGGTAATCCGTATTTGTT (site CGATCGACTCA)	0.0164
CGATCGACATGGACCGGTTTTCCCGGTAATCCGTATTTGTT (site CGATCGACTGA)	0.668
CGATCGACATGGACCGGTTTTCCCGGTAATCCGTATTTGTT (site CGATCGACTTA)	0.271
CGATCGACATGGACCGGTTTTCCCGGTAATCCGTATTTGTT (site CGATCGCCTAA)	0.00955
CGATCGACATGGACCGGTTTTCCCGGTAATCCGTATTTGTT (site CGATCGGCTAA)	0.00691
CGATCGACATGGACCGGTTTTCCCGGTAATCCGTATTTGTT (site CGATCGTCTAA)	0.00706
CGATCGACATGGACCGGTTTTCCCGGTAATCCGTATTTGTT (site CGATCTACTAA)	0.00746
CGATCGACATGGACCGGTTTTCCCGGTAATCCGTATTTGTT (site CGATGGACTAA)	0.0255
CGATCGACATGGACCGGTTTTCCCGGTAATCCGTATTTGTT (site CGATTGACTAA)	0.0149
CGATCGACATGGACCGGTTTTCCCGGTAATCCGTATTTGTT (site CGCTCGACTAA)	0.0137
CGATCGACATGGACCGGTTTTCCCGGTAATCCGTATTTGTT (site CGGTCGACTAA)	0.012
CGATCGACATGGACCGGTTTTCCCGGTAATCCGTATTTGTT (site CGTTCGACTAA)	0.0124
CGATCGACATGGACCGGTTTTCCCGGTAATCCGTATTTGTT (site CTATCGACTAA)	0.0176
CGATCGACATGGACCGGTTTTCCCGGTAATCCGTATTTGTT (site GGATCGACTAA)	0.0103

Sequence	recombinant UMI read abundance (log10)
CGATCGACATGGACCGGTTTTCCCGGTAATCCGTATTTGTT (site TGATCGACTAA)	0.00749
CGATCGCCATGGACCGGTTTTCCCGGTAATCCGTATTTGCT (site CGATCATCTAG)	0
CGATCGCCATGGACCGGTTTTCCCGGTAATCCGTATTTGCT (site CGATCGCCTAG)	0.27
CGATCGGCATGGACCGGTTTTCCCGGTAATCCGTATTTGTT (site CGATCGACTAA)	0.00492
CGATCGGCATGGACCGGTTTTCCCGGTAATCCGTATTTGTT (site CGATCGCCTAA)	0.0111
CGATCGGCATGGACCGGTTTTCCCGGTAATCCGTATTTGTT (site CGATCGGCTAA)	0.642
CGATCGGCATGGACCGGTTTTCCCGGTAATCCGTATTTGTT (site CGATCGTCTAA)	0.324
CGATCTTCATGGACCGGTTTTCCCGGTAATCCGTATTTGCA (site CGATCATCTAG)	0
CGATCTTCATGGACCGGTTTTCCCGGTAATCCGTATTTGCA (site CGATCTTCTTG)	0.912
CGATGACCATGGACCGGTTTTCCCGGTAATCCGTATTTGGG (site CGAAGACCTCC)	0.00605
CGATGACCATGGACCGGTTTTCCCGGTAATCCGTATTTGGG (site CGACGACCTCC)	0.00326
CGATGACCATGGACCGGTTTTCCCGGTAATCCGTATTTGGG (site CGAGGACCTCC)	0.0601
CGATGACCATGGACCGGTTTTCCCGGTAATCCGTATTTGGG (site CGATGACCTCC)	0.0111
CGATGATCATGGACCGGTTTTCCCGGTAATCCGTATTTGAT (site CGATCATCTAG)	0
CGATGATCATGGACCGGTTTTCCCGGTAATCCGTATTTGAT (site CGATGATCTAT)	2.44
CGATGCACATGGACCGGTTTTCCCGGTAATCCGTATTTGAT (site CGATGCACTAT)	2.34
CGATTACCATGGACCGGTTTTCCCGGTAATCCGTATTTGAT (site CGATTACCTAT)	0
CGATTGGCATGGACCGGTTTTCCCGGTAATCCGTATTTGCT (site CGATTGGCTAG)	0.768
CGATTGGCATGGACCGGTTTTCCCGGTAATCCGTATTTGCT (site CGCTTGGCTAG)	0
CGATTGGCATGGACCGGTTTTCCCGGTAATCCGTATTTGCT (site CGGTTGGCTAG)	0
CGATTGGCATGGACCGGTTTTCCCGGTAATCCGTATTTGCT (site CGTTTGGCTAG)	0
CGATTTACATGGACCGGTTTTCCCGGTAATCCGTATTTGGC (site CGATTTACTGC)	0
CGATTTCCATGGACCGGTTTTCCCGGTAATCCGTATTTGTT (site CGATTTCCTAA)	0.757

Sequence	recombinant UMI read abundance (log10)
CGCAACTCATGGACCGGTTTTCCCGGTAATCCGTATTTGAC (site CGCAACTCTGT)	2.04
CGCAAGACATGGACCGGTTTTCCCGGTAATCCGTATTTGGT (site CGCAAGACTAC)	1.19
CGCAATCCATGGACCGGTTTTCCCGGTAATCCGTATTTGAA (site AGCAATCCTTT)	0.0753
CGCAATCCATGGACCGGTTTTCCCGGTAATCCGTATTTGAA (site CGCAATCCTTT)	1.27
CGCAATCCATGGACCGGTTTTCCCGGTAATCCGTATTTGAA (site GGCAATCCTTT)	0.00324
CGCAATCCATGGACCGGTTTTCCCGGTAATCCGTATTTGAA (site TGCAATCCTTT)	0.00288
CGCACCTCATGGACCGGTTTTCCCGGTAATCCGTATTTGGG (site CGCACCTCTCC)	0.526
CGCAGACCATGGACCGGTTTTCCCGGTAATCCGTATTTGGG (site CGCAGACCTCC)	0.0135
CGCAGTACATGGACCGGTTTTCCCGGTAATCCGTATTTGCT (site CGCAGTACTAG)	1.44
CGCAGTACATGGACCGGTTTTCCCGGTAATCCGTATTTGCT (site CGCCGTACTAG)	0
CGCAGTACATGGACCGGTTTTCCCGGTAATCCGTATTTGCT (site CGCGGTACTAG)	0.749
CGCAGTACATGGACCGGTTTTCCCGGTAATCCGTATTTGCT (site CGCTGTACTAG)	0
CGCAGTCCATGGACCGGTTTTCCCGGTAATCCGTATTTGAG (site CGCAGTCCTCT)	0.438
CGCATATCATGGACCGGTTTTCCCGGTAATCCGTATTTGTC (site CACATATCTGA)	0
CGCATATCATGGACCGGTTTTCCCGGTAATCCGTATTTGTC (site CCCATATCTGA)	0
CGCATATCATGGACCGGTTTTCCCGGTAATCCGTATTTGTC (site CGCATATCTGA)	1.86
CGCATATCATGGACCGGTTTTCCCGGTAATCCGTATTTGTC (site CTCATATCTGA)	0.436
CGCATGTCATGGACCGGTTTTCCCGGTAATCCGTATTTGTT (site CGCATGTCTAA)	2.52
CGCCCATCATGGACCGGTTTTCCCGGTAATCCGTATTTGCT (site CGATCATCTAG)	0.57
CGCCCATCATGGACCGGTTTTCCCGGTAATCCGTATTTGCT (site CGCCCATCTAG)	2.54
CGCCCTACATGGACCGGTTTTCCCGGTAATCCGTATTTGCT (site CGCCATACTAG)	0
CGCCCTACATGGACCGGTTTTCCCGGTAATCCGTATTTGCT (site CGCCCTACTAG)	1.28
